Reference: ChEMBL document CHEMBL2007661, “Compounds: GSK PKIS; Assays: UNC Frye lab” (2012)
Several values for one entry are separate records, joined by “and”; a condition that tells them apart may be missing. Equal entries are not always repeated.

Tests used:
[1] = target: T1, Tyrosine-protein kinase Mer (Homo sapiens) (UniProt Q12866); details: at 10 µM
T1 sequence (whole entry): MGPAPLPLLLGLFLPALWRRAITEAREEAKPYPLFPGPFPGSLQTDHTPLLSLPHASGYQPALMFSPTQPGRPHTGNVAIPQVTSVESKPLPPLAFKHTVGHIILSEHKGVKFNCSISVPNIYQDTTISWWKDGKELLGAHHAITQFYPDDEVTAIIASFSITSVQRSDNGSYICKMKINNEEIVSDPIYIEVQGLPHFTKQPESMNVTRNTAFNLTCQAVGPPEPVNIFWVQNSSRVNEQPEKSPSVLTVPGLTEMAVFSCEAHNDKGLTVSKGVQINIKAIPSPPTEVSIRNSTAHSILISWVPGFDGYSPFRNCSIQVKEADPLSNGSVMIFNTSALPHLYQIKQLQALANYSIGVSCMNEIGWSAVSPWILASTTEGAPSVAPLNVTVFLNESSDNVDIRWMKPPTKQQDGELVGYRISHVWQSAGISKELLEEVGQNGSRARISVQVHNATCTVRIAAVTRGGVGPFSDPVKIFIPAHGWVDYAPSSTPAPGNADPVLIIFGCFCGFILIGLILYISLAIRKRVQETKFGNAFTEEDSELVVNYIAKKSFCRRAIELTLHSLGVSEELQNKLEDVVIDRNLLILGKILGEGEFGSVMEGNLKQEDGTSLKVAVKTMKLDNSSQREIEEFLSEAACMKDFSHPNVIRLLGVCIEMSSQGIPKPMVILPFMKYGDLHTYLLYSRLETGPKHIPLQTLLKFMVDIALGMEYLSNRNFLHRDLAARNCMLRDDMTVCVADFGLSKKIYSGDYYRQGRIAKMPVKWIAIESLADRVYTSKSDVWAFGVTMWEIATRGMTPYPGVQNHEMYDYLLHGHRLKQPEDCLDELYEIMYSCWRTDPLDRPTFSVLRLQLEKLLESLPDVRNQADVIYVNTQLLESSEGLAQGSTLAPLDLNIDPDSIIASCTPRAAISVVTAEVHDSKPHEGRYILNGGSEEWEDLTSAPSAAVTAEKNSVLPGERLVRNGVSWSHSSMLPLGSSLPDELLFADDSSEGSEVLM

[2] = target: T2, Inhibitor of nuclear factor kappa-B kinase subunit beta (Homo sapiens) (UniProt O14920); details: at 1 µM
T2 sequence (whole entry): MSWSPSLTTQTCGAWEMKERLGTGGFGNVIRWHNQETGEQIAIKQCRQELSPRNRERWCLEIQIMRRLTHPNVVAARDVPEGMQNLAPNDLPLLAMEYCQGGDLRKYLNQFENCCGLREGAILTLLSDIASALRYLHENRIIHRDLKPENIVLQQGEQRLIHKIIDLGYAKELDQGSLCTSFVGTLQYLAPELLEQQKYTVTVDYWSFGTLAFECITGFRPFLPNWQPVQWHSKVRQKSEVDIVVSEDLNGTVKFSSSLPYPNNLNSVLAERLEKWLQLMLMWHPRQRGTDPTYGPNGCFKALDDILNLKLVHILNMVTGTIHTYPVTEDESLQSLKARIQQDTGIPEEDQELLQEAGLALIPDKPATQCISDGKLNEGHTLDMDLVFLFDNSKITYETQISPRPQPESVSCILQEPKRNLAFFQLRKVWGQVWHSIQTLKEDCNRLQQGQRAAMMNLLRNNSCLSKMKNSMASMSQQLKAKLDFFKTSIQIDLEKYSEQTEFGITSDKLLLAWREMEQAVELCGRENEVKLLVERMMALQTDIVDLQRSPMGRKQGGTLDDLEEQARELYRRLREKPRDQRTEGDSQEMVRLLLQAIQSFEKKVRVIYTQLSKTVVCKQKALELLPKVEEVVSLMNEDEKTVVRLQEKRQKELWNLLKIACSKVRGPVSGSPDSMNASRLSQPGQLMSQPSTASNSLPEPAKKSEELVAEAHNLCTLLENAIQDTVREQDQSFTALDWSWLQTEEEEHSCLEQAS

[3] = target: T3, Inhibitor of nuclear factor kappa-B kinase subunit epsilon (Homo sapiens) (UniProt Q14164); details: at 1 µM
T3 sequence (whole entry): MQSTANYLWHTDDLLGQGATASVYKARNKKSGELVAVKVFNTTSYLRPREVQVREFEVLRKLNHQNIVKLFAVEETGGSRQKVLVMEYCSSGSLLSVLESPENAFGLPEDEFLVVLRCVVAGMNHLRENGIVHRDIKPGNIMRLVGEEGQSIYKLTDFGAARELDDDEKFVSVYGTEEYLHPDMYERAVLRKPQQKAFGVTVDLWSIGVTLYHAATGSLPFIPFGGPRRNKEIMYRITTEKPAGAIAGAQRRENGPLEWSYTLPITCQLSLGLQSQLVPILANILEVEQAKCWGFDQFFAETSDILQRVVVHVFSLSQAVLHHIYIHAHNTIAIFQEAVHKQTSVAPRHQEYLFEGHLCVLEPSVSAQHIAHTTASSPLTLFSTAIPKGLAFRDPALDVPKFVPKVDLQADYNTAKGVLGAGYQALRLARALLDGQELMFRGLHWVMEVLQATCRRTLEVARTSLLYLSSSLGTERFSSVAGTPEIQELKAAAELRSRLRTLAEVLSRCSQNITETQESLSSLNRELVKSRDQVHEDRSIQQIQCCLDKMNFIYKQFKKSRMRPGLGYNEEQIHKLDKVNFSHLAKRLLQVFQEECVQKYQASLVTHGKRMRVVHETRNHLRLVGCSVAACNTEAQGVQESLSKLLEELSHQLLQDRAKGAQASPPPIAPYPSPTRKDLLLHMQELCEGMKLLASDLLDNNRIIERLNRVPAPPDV

inhibition [1] [%] | inhibition [2] | inhibition [3] | Structure (SMILES)
-4 | -2% and -3% | 3% and 0% | CC1=C(C(=O)Nc2ccc3[nH]ncc3c2)C(c2ccc(F)cc2)N=C(c2ccc(C(F)(F)F)nc2)N1 (centres undefined)
25 | 0% and -2% | 0% | COc1cccc(-n2ncc3c(N/N=C/c4ccc(C)cc4)ncnc32)c1
5 | -1% | 3% and 0% | COc1cccc(-n2ncc3c(N/N=C/c4ccc(S(C)(=O)=O)cc4)ncnc32)c1
